Data published in PMC12136031 (Science Advances, 2025).
Like-named read-outs stand apart in the source and are kept apart here.

Tests used:
[1] = biological target: DCAF7 (Homo sapiens, UniProt P61962); assay: Microscale thermophoresis (MST) of DCAF7 and BC18630; conditions: read-out: Kd (MST binding coefficient)
[2] = test system: TFEB transcriptional targets; assay: RNA-seq of DCAF7 inhibitor-treated BEAS-2B cells; assay type: cell-based, human; conditions: 3 μM, 18 hours
[3] = test system: lysosomal pH; assay: Lysosomal pH (lysosensor yellow/blue) in OC43-infected BEAS-2B cells; assay type: cell-based, human; conditions: OC43 7 hours, 18 hours pretreatment, 100 nM
[4] = test system: SARS-CoV-2; assay: In vivo hamster SARS-CoV-2 infection assay; design: species or system Syrian golden hamster
[5] = test system: SARS-CoV-2 (USA-WA-1/2020); assay type: in vivo, K18-hACE2 mice; conditions: for Survival (mice survived): BID thereafter, until day 10
[6] = test system: hepatic endolysosomal capacity; assay: Murine model of hepatic lysosomal activity (dextran cascade blue uptake); assay type: in vivo, C57BL/6 mice; conditions: 50 mg/kg i.p. daily for 4 days
[7] = biological target: T1, CHRM1 (Homo sapiens, UniProt P11229); assay: Safety47 Calcium Flux CHRM1; assay type: cell-based; conditions: for Emax: read-out: Max Response; for EC50: read-out: RC50 (EC50); for IC50: read-out: RC50 (IC50)
T1 construct: purchased Eurofins Panlab Safety47 Safety Scan
T1 sequence (P11229 1-460): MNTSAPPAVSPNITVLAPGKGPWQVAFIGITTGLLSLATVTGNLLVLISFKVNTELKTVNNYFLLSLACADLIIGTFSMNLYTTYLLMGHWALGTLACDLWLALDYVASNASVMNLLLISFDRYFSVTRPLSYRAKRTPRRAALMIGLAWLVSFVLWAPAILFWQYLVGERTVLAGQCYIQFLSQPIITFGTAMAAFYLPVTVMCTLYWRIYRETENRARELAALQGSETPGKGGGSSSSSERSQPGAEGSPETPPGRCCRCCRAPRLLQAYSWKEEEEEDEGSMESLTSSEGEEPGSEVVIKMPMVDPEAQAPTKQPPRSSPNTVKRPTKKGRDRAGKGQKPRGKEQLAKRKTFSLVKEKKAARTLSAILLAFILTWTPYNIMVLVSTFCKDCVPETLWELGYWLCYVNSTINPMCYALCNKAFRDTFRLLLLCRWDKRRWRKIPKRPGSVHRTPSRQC

[8] = test system: Vero E6 cells; conditions: read-out: Cytotoxicity CC50 Vero E6 MEM
[9] = in vitro; conditions: African green monkey

Chain of DCAF7 (P61962 whole entry): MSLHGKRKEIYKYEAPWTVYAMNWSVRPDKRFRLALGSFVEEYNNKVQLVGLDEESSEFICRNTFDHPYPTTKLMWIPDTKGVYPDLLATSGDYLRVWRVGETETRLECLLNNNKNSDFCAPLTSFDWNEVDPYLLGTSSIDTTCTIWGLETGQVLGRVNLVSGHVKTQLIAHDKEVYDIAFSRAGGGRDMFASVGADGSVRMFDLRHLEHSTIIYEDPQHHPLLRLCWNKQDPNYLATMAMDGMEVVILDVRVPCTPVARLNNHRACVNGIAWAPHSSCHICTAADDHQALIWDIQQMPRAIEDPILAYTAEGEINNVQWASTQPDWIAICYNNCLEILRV

SMILES: Cl.c1ccc2c(Nc3ccc4[nH]ccc4c3)nc(-c3ccncc3)nc2c1 [BC18630, N-1H-indol-5-yl-2-pyridin-4-ylquinazolin-4-amine hydrochloride]
- Kd [1]: ~4.38 µM
- Transcripts previously identified as TFEB transcriptional targets [2]: notable increase
- Virally induced lysosomal alkalization (lysosomal pH) [3]: inhibited this virally induced alkalization
- NP-positive epithelial staining (IHC of lung slices) ([4]; 4 dpi): notably reduced
- Observed levels of lung injury ([4]; H&E histology): mitigated
- Lung viral load reduction ([4]; higher dose (50 mg/kg oral BID), 4 and 6 dpi): > 90%
- Lung viral titer (PFU) ([4]; oral BID 20 and 50 mg/kg, all time points (2, 4, 6 dpi)): dose-dependently reduced
- Viral titer in mouse lungs ([5]; 3 dpi, both treatments (pre and post), 40 mg/kg oral BID): substantialy decreased
- TFEB IHC signal in the airways ([5]; mouse lung, 6 dpi): increase
- Survival (mice survived) ([5]; post-treat: 40 mg/kg 12 hours after infection): 2/5
- Survival (mice survived) ([5]; pre-treat: 40 mg/kg 24 hours before infection): 3/5
- Mouse hepatic endolysosomal capacity [6]: increased
- Emax ([7]; Agonist): 0%
- EC50 ([7]; Agonist): > 10 µM
- Emax ([7]; Antagonist): 7.76%
- IC50 ([7]; Antagonist): > 10 µM
- CC50 [8]: > 10 µM
- CC50 [9]: > 10 µM

SMILES: Cl.Fc1cc(Nc2nc(-c3ccncc3)nc3ncccc23)cc2cc[nH]c12 [BC18813, N-(7-fluoro-1H-indol-5-yl)-2-pyridin-4-ylpyrido[2,3-d]pyrimidin-4-amine hydrochloride]
- Emax ([7]; Agonist): 0%
- EC50 ([7]; Agonist): > 10 µM
- Emax ([7]; Antagonist): 15.3%
- IC50 ([7]; Antagonist): > 10 µM
